Earlier results in US9399652B2, “Synthetic route to pactamycin and pactamycin analogs” (The University of North Carolina at Chapel Hill, priority 2013, dated 2016).

Settings: literature value (ref. 11); cell line not given; read-out: cytotoxicity (IC50)

CC(=O)c1cccc(N[C@H]2[C@H](N)[C@@](NC(=O)N(C)C)([C@H](C)O)[C@@](C)(O)[C@@]2(O)COC(=O)c2c(C)cccc2O)c1 [Pactamycin]
IC50: 95 nM
